Values of other authors, collected in patent publication US10001469B2, “Use of GPR83 to identify pruritus-related substances” (University of Miyazaki, priority 2010, dated 2018).

Assays:
[1] = system: SP-induced scratching behavior; conditions: pre-administration, Non-patent Documents 7 and 8; cited from earlier work
[2] = system: HK-1-induced scratching behavior; conditions: pre-administration, Non-patent Documents 7 and 8; cited from earlier work

For Ic1ccccc1CN[C@@H]1C2CCN(CC2)[C@@H]1C(c1ccccc1)c1ccccc1 (racemic) [L-703,606], which “suppression of SP-induced scratching behavior” value [1] is on record?
Its value is “suppressed”.

And the “suppression of HK-1-induced scratching behavior” value [2]?
Its value is “suppressed”.
